Where two headings read alike, the source gives them in different places.
Columns and labels:
Format in all cases: cell-based
[1] = test system: BaF3 FLT3 I836T mutant cells; test: MTT growth inhibition assay, BaF3 FLT3 I836T cells; conditions: Mus musculus, no IL-3, 48 h, read-out: Proliferation IC50
Method: (§1) Figure 1 Growth of AL mutants in the presence of FLT3 TKI The BaF3 AL mutants were grown in the absence of IL-3 and analyzed by treatment in increasing concentrations of FLT3 TKI for 48 hours, after which growth inhibition was assessed using the MTT assay. Means are representative of at least three independent experiments.
(§2) The cells were grown in the absence of IL3 and analyzed by treatment in increasing concentrations of FLT3 TKI for 48 hours, after which growth inhibition was assessed using the MTT assay. Each experiment was performed at least three times and representative results are shown.
(§3) Based on Trypan Blue exclusion, 2 × 10^4 viable cells were seeded in quadruplicate in a 96-well microtiter plate in the presence or absence of inhibitor for 48 h. The effect of drug activity on cell viability was measured using the 3-(4,5-Dimethylthiazol-2-yl)-2,5-diphenyltetrazolium bromide (MTT) assay according to the manufacturer's instructions (Roche Applied Science, Indianapolis, IN, USA). Following treatment, cells were incubated for 4 h in MTT followed by dissolution in solubilization buffer overnight. Absorbance was measured at 570 nm on a Bio-Rad plate reader (Hercules, CA, USA). […] Results shown are presented as means and are representative of at least three independent experiments.

[2] = test system: BaF3 FLT3 D835L+K mutant cells; test: MTT growth inhibition assay, BaF3 FLT3 D835L+K cells; conditions: Mus musculus, no IL-3, 48 h, read-out: Proliferation IC50
Method: as §1, §2, §3

[3] = test system: BaF3 FLT3 D835G mutant cells; test: MTT growth inhibition assay, BaF3 FLT3 D835G cells; conditions: Mus musculus, no IL-3, 48 h, read-out: Proliferation IC50
Method: as §1, §2, §3

[4] = test system: BaF3 FLT3 D835N mutant cells; test: MTT growth inhibition assay, BaF3 FLT3 D835N cells; conditions: Mus musculus, no IL-3, 48 h, read-out: Proliferation IC50
Method: as §1, §2, §3

[5] = test system: BaF3 FLT3 840G+S mutant cells; test: MTT growth inhibition assay, BaF3 FLT3 840G+S cells; conditions: Mus musculus, no IL-3, 48 h, read-out: Proliferation IC50
Method: as §1, §2, §3

[6] = test system: BaF3 FLT3 D593D mutant cells; test: MTT growth inhibition assay, BaF3 FLT3 D593D cells; conditions: Mus musculus, no IL-3, 48 h, read-out: Proliferation IC50
Method: as §1, §2, §3

[7] = test system: BaF3 FLT3 I836S mutant cells; test: MTT growth inhibition assay, BaF3 FLT3 I836S cells; conditions: Mus musculus, read-out: Proliferation IC50
Method: as §1, §2, §3

[8] = test system: BaF3 FLT3 D835A mutant cells; test: MTT growth inhibition assay, BaF3 FLT3 D835A cells; conditions: Mus musculus, read-out: Proliferation IC50
Method: as §1, §2, §3

[9] = test system: BaF3 FLT3 D835Y mutant cells; test: MTT growth inhibition assay, BaF3 FLT3 D835Y cells; conditions: Mus musculus, no IL-3, 48 h, read-out: Proliferation IC50
Method: as §1, §2, §3

BaF3/ITD cells = test: MTT growth inhibition assay, BaF3 FLT3-ITD cells; conditions: Mus musculus, no IL-3, 48 h, read-out: Proliferation IC50
Method: as §1, §2, §3

[10] = test system: BaF3 FLT3 I836L+D mutant cells; test: MTT growth inhibition assay, BaF3 FLT3 I836L+D cells; conditions: Mus musculus, no IL-3, 48 h, read-out: Proliferation IC50
Method: as §1, §2, §3

[11] = BaF3 FLT3 I836S, no IL-3, 48 h, MTT
[12] = BaF3 FLT3 D835A, no IL-3, 48 h, MTT

Row | IC50 [1] | IC50 [2] | IC50 [3] | IC50 [4] | IC50 [5] | IC50 [6] | IC50 [9] | IC50 (BaF3/ITD cells) | IC50 [10] | IC50 [7, 11] | IC50 [8, 12] | Compound | IC50 ([7]; BaF3, 48 h) | IC50 ([8]; BaF3, 48 h)
1 | > 3000 nM | > 3000 nM | 423 nM | 411 nM | 500 nM | > 3000 nM | > 3000 nM | 298 nM | > 3000 nM | > 3000 nM | 1970 nM | Cc1cc2ncc(-c3ccccc3)nc2cc1C [AG1295] |  | 
2 | > 1000 nM | > 1000 nM | 110 nM | 80 nM | 83 nM | 70 nM | 58 nM | 57 nM | 50 nM | > 1000 nM | 78.1 nM | CC1(COc2ccc3c(c2)ncn3-c2ccc3cccc(N4CCC(N)CC4)c3n2)COC1 [Crenolanib] |  | 

Row | Compound | IC50 [1] | IC50 [2] | IC50 [3] | IC50 [4] | IC50 [5] | IC50 [6] | IC50 [9] | IC50 (BaF3/ITD cells) | IC50 [10] | IC50 [7, 11] | IC50 [8, 12] | IC50 ([7]; BaF3, 48 h) | IC50 ([8]; BaF3, 48 h)
3 | Cc1ccc(C(=O)Nc2ccc(CN3CCN(C)CC3)c(C(F)(F)F)c2)cc1C#Cc1cnc2cccnn12 [Ponatinib] | > 1000 nM | > 1000 nM | < 1 nM | < 1 nM | < 1 nM | 10.7 nM | 92 nM | < 1 nM | < 1 nM |  |  | > 1000 nM | 148 nM
